In patent publication US20060019929A1, “Combination therapies employing platelet aggregation drugs” (priority 2004, published 2006):
Entries after “also recorded” stand apart in the source; their conditions may differ.

Key:
Type in all cases: in vivo
[1] = system: patients who underwent percutaneous coronary intervention (PCI); assay: Maximum periprocedural CK-MB in patients with adjunctive platelet aggregation inhibitor (study data of Example 1 re-examined); conditions: adjunctive ASA 82 or 325 mg, eptifibatide, or clopidogrel 75 or 300 mg
Experimental: Study end points and definitions: The primary objective of the study was to evaluate the feasibility of treatment with P5P as a cardioprotective agent in high-risk elective PCI. The primary end point of infarct size was evaluated by the trapezoidal rule (Press W H, Teukolsky S A, Vetterling W T, Flannery B P. Numerical Recipes. Cambridge, UK: Cambridge University Press, 1994:127-133) using serial CK-MB enzyme measures performed at baseline and every 6 hours for 24 hours beginning immediately before initiation of PCI. The occurrence of myocardial ischemia within 24 hours after PCI was assessed as a secondary end point using continuous 12-lead electrocardiographic monitoring (Northeast Monitoring, Boston, Mass.). […] Area under the curve ST-segment deviation was measured from the onset of the first to the last contrast injection. […]

[2] = system: patients who underwent percutaneous coronary intervention (PCI); assay: Periprocedural cardiac markers (serial CK-MB, troponin T) after high-risk elective PCI, P5P vs placebo
Text: (§1) Methods—Study Overview: 60 patients who underwent percutaneous coronary intervention (PCI) at 4 centers were randomized in a 2:1 double-blinded fashion to treatment with P5P or placebo. Inclusion criteria required prior determination for non-urgent PCI of a single-vessel lesion(s) and identification of ≧1 of the following clinical characteristics determining high risk for procedural-related ischemic complications (Califf R M, Abdelmeguid A E, Kuntz R E, Popma J J, Davidson C J, Cohen E A, Kleiman N S, Mahaffey K W, Topol E J, Pepine C J, et al. Myonecrosis after revascularization procedures. J Am Coll Cardiol 1998; 31:241-251; The ESPRIT Investigators. Novel dosing regimen of eptifibatide in planned coronary stent implantation: a randomised, placebo-controlled trial. Lancet 2000; 356:2037-2044): presence of an acute coronary syndrome (chest pain within 48 hours of PCI), recent AMI (≦7 days), diminished epicardial blood flow, angiographic thrombus, ejection fraction ≦30%, or vein graft lesion. In addition to any general contraindication to the PCI procedure or standard concomitant therapies, major exclusion criteria were creatine kinase (CK-MB) elevation above the upper limit of normal immediately before PCI, electrocardiographic evidence of atrial fibrillation or left bundle branch block, or evidence of any clinically significant abnormal laboratory finding (transaminases, bilirubin, or alkaline phosphatase >1.5 times the upper limit of normal or serum creatinine >1.8 mg/dl). Patients with elevated troponin measurements were permitted in the study provided that the peak troponin value was reported >24 hours before scheduled PCI, with documentation of a decreasing value before revascularization. After providing informed consent, patients randomized to treatment with P5P were administered enteric-coated P5P as a 10 mg/kg oral dose ≧4 hours before PCI followed by 2 daily doses of 5 mg/kg orally for 14 days. Compliance and reasons for discontinued treatments were recorded for all patients.
(§2) Study end points and definitions: The primary objective of the study was to evaluate the feasibility of treatment with P5P as a cardioprotective agent in high-risk elective PCI. The primary end point of infarct size was evaluated by the trapezoidal rule (Press W H, Teukolsky S A, Vetterling W T, Flannery B P. Numerical Recipes. Cambridge, UK: Cambridge University Press, 1994:127-133) using serial CK-MB enzyme measures performed at baseline and every 6 hours for 24 hours beginning immediately before initiation of PCI. The occurrence of myocardial ischemia within 24 hours after PCI was assessed as a secondary end point using continuous 12-lead electrocardiographic monitoring (Northeast Monitoring, Boston, Mass.). Evidence of periprocedural ischemia was defined as ST-segment depression of >100 μV within a 60-minute period of PCI, lasting ≧1 minute and separated from other episodes by ≧1 minute. Area under the curve ST-segment deviation was measured from the onset of the first to the last contrast injection. All cardiac markers and ST-segment monitoring data were analyzed by core laboratories blinded to treatment assignment (University of Maryland School of Medicine, Baltimore, Md.; Duke Ischemia Monitoring Laboratory, Durham, N.C.). […]

[3] = system: patients who underwent percutaneous coronary intervention (PCI); assay: 24-h continuous 12-lead electrocardiographic ST monitoring after PCI
Experimental: Methods—Study Overview: 60 patients who underwent percutaneous coronary intervention (PCI) at 4 centers were randomized in a 2:1 double-blinded fashion to treatment with P5P or placebo. […] Compliance and reasons for discontinued treatments were recorded for all patients.
as §2, with “Evidence of periprocedural ischemia was defined as ST-segment depression of >100 μV within a 60-minute period of PCI, lasting ≧1 minute and separated from other episodes by ≧1 minute.” left out

[4] = system: patients who underwent percutaneous coronary intervention (PCI); assay: 30-day composite and individual clinical event rates after PCI; conditions: 30 days
Text: Methods—Study Overview: 60 patients who underwent percutaneous coronary intervention (PCI) at 4 centers were randomized in a 2:1 double-blinded fashion to treatment with P5P or placebo. Inclusion criteria required prior determination for non-urgent PCI of a single-vessel lesion(s) and identification of ≧1 of the following clinical characteristics determining high risk for procedural-related ischemic complications (Califf R M, Abdelmeguid A E, Kuntz R E, Popma J J, Davidson C J, Cohen E A, Kleiman N S, Mahaffey K W, Topol E J, Pepine C J, et al. Myonecrosis after revascularization procedures. J Am Coll Cardiol 1998; 31:241-251; The ESPRIT Investigators. Novel dosing regimen of eptifibatide in planned coronary stent implantation: a randomised, placebo-controlled trial. Lancet 2000; 356:2037-2044): presence of an acute coronary syndrome (chest pain within 48 hours of PCI), recent AMI (≦7 days), diminished epicardial blood flow, angiographic thrombus, ejection fraction ≦30%, or vein graft lesion. […] Compliance and reasons for discontinued treatments were recorded for all patients.
as §2, with “Evidence of periprocedural ischemia was defined as ST-segment depression of >100 μV within a 60-minute period of PCI, lasting ≧1 minute and separated from other episodes by ≧1 minute.” left out, “injection.” for “injection. All cardiac markers and ST-segment monitoring data were analyzed by core laboratories blinded to treatment assignment (University of Maryland School of Medicine, Baltimore, Md.; Duke Ischemia Monitoring Laboratory, Durham, N.C.).”

[5] = system: patients who underwent percutaneous coronary intervention (PCI); assay: Clinical safety (bleeding, transfusion, chemistries, coagulation, discontinuation)
Text: as §1, §2

[6] = system: patients who underwent percutaneous coronary intervention (PCI); assay: Procedural and angiographic results (investigator-reported)
Text: as §1
Except for a higher incidence of reduced epicardial flow among control patients, baseline angiographic and procedural characteristics also appeared similar between treatment groups (Table 1). Administration of P5P or placebo occurred an average of 6.1 and 8.4 hours before PCI, respectively. Stent implantation was performed in 100% and 97.3% of the placebo and P5P treatment groups, respectively. Only 1 vein graft intervention was performed using distal embolic protection. Although the right coronary artery was most commonly treated in both groups, fewer patients treated with placebo underwent revascularization of a saphenous vein graft (Table 2). Procedural angiographic complications (e.g., major dissection, abrupt vessel closure) were infrequent (Table 2).

Molecule: CC(=O)Oc1ccccc1C(=O)O [ASA + placebo, acetylsalicylic acid]
- CK-MB max (mean) [1]: 3.41 ng/mL

Molecule: COC(=O)[C@H](c1ccccc1Cl)N1CCc2sccc2C1 [Clopidogrel + placebo, clopidogrel]
- CK-MB max (mean) [1]: 3.41 ng/mL

Molecule: Cc1ncc(COP(=O)(O)O)c(C=O)c1O [P5P, pyridoxal-5-phosphate]
- maximum / peak periprocedural CK-MB level versus placebo ([2]; P5P vs placebo): significantly lower; also recorded: significant decrease
- Time to peak CK-MB ([2]; median (interquartile range)): 11.0 (0-18.0), 36 h
- change in troponin T ([2]; median (interquartile range), baseline to within 24 h after PCI): 0 (0-0.07), 36 ng/ml
- Area under the curve CK-MB (periprocedural infarct size) ([2]; median (interquartile range), enteric-coated P5P 10 mg/kg oral ≧4 h before PCI, then 5 mg/kg twice daily 14 days, CK-MB every 6 h for 24 h): 18.6 (10.2-34.5), 35 ng/ml
- Peak CK-MB ([2]; median (interquartile range), periprocedural): 1.1 (0.5-2.4), 39 ng/ml
- Area under the curve ST deviation ([3]; median (interquartile range), 24-h continuous ST monitoring): 1349 (951-2.263), 35 μV-min
- Any post PCI ischemia ([3]; percent of patients, within 24 h after PCI): 14.7-34%
- 30-day deaths [4]: no deaths
- 30-day composite adverse event rate (death, nonfatal AMI, new and/or worsening heart failure, or recurrent ischemia) ([4]; p=1.0 vs placebo): 17.9%
- 30-day nonfatal AMI ([4]; p=1.0 vs placebo): 12.8%
- abnormalities of routine chemistries or coagulation studies versus placebo ([5]; at 7 and 30 days): no apparent differences
- safety issues related to treatment ([5]; human, in vivo): No safety issues
- need for blood product transfusion ([5]; p=0.26 vs placebo): 2.5%
- major bleeding ([5]; p=0.27 vs placebo): 2.8%
- patients discontinued drug therapy before completion of the prescribed 2 weeks ([5]; p=0.77 vs placebo): 30.8%
- TIMI flow final 0/1 ([6]; after PCI, n = 37): 0 number (percent)
- TIMI flow final 2 ([6]; after PCI, n = 37): 0 number (percent)
- TIMI flow final 3 ([6]; after PCI, n = 37): 37 (100) number (percent)
- Diameter stenosis final ([6]; median (interquartile range), after PCI): 0 (0-0) %
- Procedural complications: Abrupt closure ([6]; n = 37): 0 number (percent)
- Procedural complications: Distal embolization ([6]; n = 37): 0 number (percent)
- Procedural complications: Major dissection ([6]; n = 37): 1 (3) number (percent)
- Procedural complications: No reflow ([6]; n = 37): 0 number (percent)
- Procedural complications: None ([6]; n = 37): 35 (95) number (percent)
- Procedural complications: Side branch closure ([6]; n = 37): 1 (3) number (percent)
- Procedural complications: Thrombus formation ([6]; n = 37): 0 number (percent)

Molecule: eptifibatide [Eptifibatide + placebo]
- CK-MB max (mean) [1]: 3.40 ng/mL
